# Measurements as given in BindingDB's records for doi:10.1016/s0960-894x(02)00236-6 (University of Virginia, 2002).
# How the values were obtained:
# [1] = AE maximal score at Adenosine A2A receptor
# [2] = AE maximal score at Adenosine A3 receptor
# [3] = AE maximal score at Adenosine A1 receptor
Compound,EC50 [1],EC50 [2],EC50 [3]
COc1cc2c(cc1OC)-c1nc(N)sc1C2,1 pM,794 µM,
CC(=O)Oc1ccc2c(c1)CCc1sc(N)nc1-2,,,158 µM
COc1ccc2c(c1)CCc1sc(N)nc1-2,,,0.002 µM
